Active and inactive are the calls of the source. No cut-off for these calls is given here.

Experiment [1] addresses T1, D(1B) dopamine receptor (Homo sapiens, UniProt P21918). The experiment can be described thus: Displacement of [3H]SCH-23390 from human cloned D5 dopamine receptor expressed in HEKT cells incubated for 90 mins by scintillation counting based radioligand binding assay. The experiment is classed as cell-based. On the technique in general: In a radioligand displacement assay an active substance lowers the binding of a labelled ligand.

Experiment [2] addresses T1, D(1B) dopamine receptor. In words: Binding affinity to human cloned D5 dopamine receptor incubated for 90 mins by radioligand binding assay.
Experiment [3] addresses T2, D(2) dopamine receptor (Homo sapiens, UniProt P14416). In words: Antagonist activity at human D2L dopamine receptor expressed in HEK293 cells assessed as inhibition of quinpirole-induced intracellular calcium level preincubated at 10 uM by oregon green staining based microplate fluorescence reader analysis. The format is functional, cell-based. A general note: A change in cytosolic calcium serves as a functional read-out for many receptors and channels.

Experiment [4] addresses T3, D(4) dopamine receptor (Homo sapiens, UniProt P21917).
T3 sequence (P21917 whole entry): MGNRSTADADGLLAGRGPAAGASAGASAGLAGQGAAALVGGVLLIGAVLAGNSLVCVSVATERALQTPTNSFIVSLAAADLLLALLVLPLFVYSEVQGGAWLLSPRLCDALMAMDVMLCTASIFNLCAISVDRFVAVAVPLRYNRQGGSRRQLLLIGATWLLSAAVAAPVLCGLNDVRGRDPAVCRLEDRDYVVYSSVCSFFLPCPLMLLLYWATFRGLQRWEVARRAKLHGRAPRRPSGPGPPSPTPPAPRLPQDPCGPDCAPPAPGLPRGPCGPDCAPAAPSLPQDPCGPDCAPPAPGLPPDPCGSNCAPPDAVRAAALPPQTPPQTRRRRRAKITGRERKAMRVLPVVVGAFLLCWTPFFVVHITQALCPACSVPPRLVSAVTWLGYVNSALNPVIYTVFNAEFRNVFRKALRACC
The experiment can be described thus: Binding affinity to human cloned D4 dopamine receptor incubated for 90 mins by radioligand binding assay.

Experiment [5] deals with T4, D(1A) dopamine receptor (Homo sapiens, UniProt P21728). In words: Displacement of [3H]SCH-23390 from human cloned D1 dopamine receptor incubated for 90 mins by radioligand binding assay.
In experiment [6] the target is T2, D(2) dopamine receptor. The experiment can be described thus: Displacement of [3H]spiperone from human cloned D2 dopamine receptor incubated for 90 mins by radioligand binding assay.
For experiment [7], the species on record is Homo sapiens. In words: Selectivity index, ratio of Ki for human cloned D1 dopamine receptor to Ki for human cloned D5 dopamine receptor.
For experiment [8], the target named is T1, D(1B) dopamine receptor. In words: Antagonist activity at human D5 dopamine receptor expressed in HEK293 cells assessed as inhibition of SKF38393-induced intracellular calcium level preincubated at 10 uM by oregon green staining based microplate fluorescence reader analysis. The format is functional, cell-based.
In experiment [9] the target is T4, D(1A) dopamine receptor. The experiment can be described thus: Antagonist activity at human D1 dopamine receptor expressed in HEK293 cells assessed as inhibition of SKF38393-induced intracellular calcium level preincubated at 10 uM by oregon green staining based microplate fluorescence reader analysis. The experiment is classed as functional, cell-based.
Experiment [10] has as its target T5, D(3) dopamine receptor (Homo sapiens, UniProt P35462). The experiment can be described thus: Binding affinity to human cloned D3 dopamine receptor incubated for 90 mins by radioligand binding assay.
Experiment [11] concerns the target T3, D(4) dopamine receptor.
Experiment [12] has as its target T5, D(3) dopamine receptor. The experiment can be described thus: Displacement of [3H]N-methylspiperone from human cloned D3 dopamine receptor expressed in HEKT cells incubated for 90 mins by scintillation counting based radioligand binding assay. The experiment is classed as cell-based.
Experiment [13] addresses T4, D(1A) dopamine receptor. The experiment can be described thus: Displacement of [3H]SCH-23390 from human cloned D1 dopamine receptor expressed in HEKT cells incubated for 90 mins by scintillation counting based radioligand binding assay. The format is cell-based.

T5 sequence (P35462 whole entry): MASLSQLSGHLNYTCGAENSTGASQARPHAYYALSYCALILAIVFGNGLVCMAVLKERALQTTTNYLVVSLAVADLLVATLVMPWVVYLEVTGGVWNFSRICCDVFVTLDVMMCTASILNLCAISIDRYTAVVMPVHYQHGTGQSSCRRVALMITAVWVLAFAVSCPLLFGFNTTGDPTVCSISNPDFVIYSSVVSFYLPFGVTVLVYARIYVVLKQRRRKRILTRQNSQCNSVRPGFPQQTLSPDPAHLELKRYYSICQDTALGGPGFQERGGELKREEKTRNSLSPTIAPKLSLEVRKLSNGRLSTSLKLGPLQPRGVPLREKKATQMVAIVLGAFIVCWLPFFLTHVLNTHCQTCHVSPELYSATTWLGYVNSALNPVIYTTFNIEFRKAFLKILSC
T1 sequence (P21918 whole entry): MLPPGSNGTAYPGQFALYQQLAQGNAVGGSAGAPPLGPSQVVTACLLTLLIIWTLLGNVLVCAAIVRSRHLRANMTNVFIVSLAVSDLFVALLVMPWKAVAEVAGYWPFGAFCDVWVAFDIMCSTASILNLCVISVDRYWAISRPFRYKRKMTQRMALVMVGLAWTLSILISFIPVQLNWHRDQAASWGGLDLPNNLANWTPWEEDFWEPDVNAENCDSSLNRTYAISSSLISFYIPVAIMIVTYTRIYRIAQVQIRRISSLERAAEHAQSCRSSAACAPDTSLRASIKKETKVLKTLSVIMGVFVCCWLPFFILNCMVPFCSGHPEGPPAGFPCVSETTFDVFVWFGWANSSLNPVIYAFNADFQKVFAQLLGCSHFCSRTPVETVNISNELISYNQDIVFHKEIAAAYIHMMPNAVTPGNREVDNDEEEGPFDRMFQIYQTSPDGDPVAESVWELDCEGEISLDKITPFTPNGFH
T2 sequence (P14416 whole entry): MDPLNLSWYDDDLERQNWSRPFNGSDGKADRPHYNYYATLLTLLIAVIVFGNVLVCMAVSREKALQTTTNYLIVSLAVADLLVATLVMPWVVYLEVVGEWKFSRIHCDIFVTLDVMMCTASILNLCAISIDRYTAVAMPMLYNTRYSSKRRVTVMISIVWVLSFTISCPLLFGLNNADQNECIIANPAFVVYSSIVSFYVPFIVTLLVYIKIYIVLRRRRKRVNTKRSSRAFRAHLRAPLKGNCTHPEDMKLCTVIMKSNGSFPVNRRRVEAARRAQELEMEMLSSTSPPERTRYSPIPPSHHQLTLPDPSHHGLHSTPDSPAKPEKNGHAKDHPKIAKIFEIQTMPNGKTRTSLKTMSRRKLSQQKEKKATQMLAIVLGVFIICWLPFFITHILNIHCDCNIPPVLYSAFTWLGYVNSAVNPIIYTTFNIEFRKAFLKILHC
T4 sequence (P21728 whole entry): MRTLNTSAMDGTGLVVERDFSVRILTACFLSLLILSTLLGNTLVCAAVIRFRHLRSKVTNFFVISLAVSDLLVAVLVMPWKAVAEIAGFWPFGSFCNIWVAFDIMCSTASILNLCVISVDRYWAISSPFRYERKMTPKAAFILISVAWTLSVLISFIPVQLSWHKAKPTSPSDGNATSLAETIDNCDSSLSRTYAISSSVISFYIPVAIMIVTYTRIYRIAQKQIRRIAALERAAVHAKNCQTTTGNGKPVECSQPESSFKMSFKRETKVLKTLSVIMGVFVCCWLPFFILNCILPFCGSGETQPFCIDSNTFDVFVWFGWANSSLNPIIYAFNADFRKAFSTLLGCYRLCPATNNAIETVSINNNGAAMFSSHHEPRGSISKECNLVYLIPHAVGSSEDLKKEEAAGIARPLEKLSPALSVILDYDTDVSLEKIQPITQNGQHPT

Regarding `Cc1cc2c(s1)Nc1ccccc1N=C2N1CCN(C)CC1` [OLANZAPINE], affinity in experiment [1] was put at a Ki of 90 nM.

`CN1CCc2ccccc2Cc2sccc2CC1`: the inhibitory constant (Ki) (usually a dissociation constant, usually derived from enzyme kinetics or from competition with a known ligand) in experiment [2] is 3 nM; in experiment [4], 188 nM; in experiment [5] it was 60 nM; in experiment [6], 45 nM; in [10], 24 nM. Further, the inhibition entry in [3], in experiment [8] and in experiment [9] was “Active” each time. The Ratio Ki in experiment [7] came out at 20.

Consider `CN1CCc2ccccc2Cc2sc3ccccc3c2CC1`, for which the Ki in experiment [2] is 1.9 nM; in experiment [4] it was 72 nM; in [5], 40 nM; in experiment [6], 1.5 nM; in [10] it was 18 nM. Also, the inhibition result in experiment [3], in experiment [8] and in experiment [9] was “Active” each time. In addition, in [7], the Ratio Ki came to 20.

Consider `CCOC(=O)N1CCc2ccccc2Cc2ccsc2CC1`, for which the Ki in experiment [2], in [4], in [5], in experiment [6] and in experiment [10] was > 1000 nM throughout.

`CN1CC2c3ccccc3Oc3ccc(Cl)cc3C2C1` (configuration not stated) [ASENAPINE]: the Ki in experiment [11] amounted to 9 nM; in experiment [12], 9.4 nM; in experiment [13] it was 8.9 nM.

As for `CCOC(=O)N1CCc2ccccc2Cc2sccc2CC1`, the Ki in experiment [2], in experiment [4], in experiment [5], in [6] and in experiment [10] was > 1000 nM throughout.

Take `CCOC(=O)N1CCc2ccccc2Cc2sc3ccccc3c2CC1`: the inhibition constant Ki in [2], in experiment [4], in [5], in experiment [6] and in experiment [10] was > 1000 nM each time.

For the origin of these results see ChEMBL document CHEMBL3751719, “D1-like receptors distinguishing thieno-azecine regioisomers” (Medchemcomm, 2015).
